Assay results from PubChem BioAssay (NCI).
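Assay format: 96-well plates, 48-hour exposure. TGI marks complete inhibition of growth.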

Key:
Experiment in all cases: growth of human tumour cells (NCI), 48 h
[1] = system: HCT-116 colon
[2] = system: HOP-62 NSCLC
[3] = system: MDA-MB-231 breast
[4] = system: SK-MEL-5 melanoma
[5] = system: KM12 colon
[6] = system: NCI/ADR-RES ovarian
[7] = system: SW-620 colon
[8] = system: SR leukemia
[9] = system: TK-10 renal
[10] = system: SK-OV-3 ovarian
[11] = system: IGROV1 ovarian
[12] = system: SNB-19 CNS
[13] = system: SK-MEL-2 melanoma
[14] = system: 786-0 renal
[15] = system: NCI-H522 lung
[16] = system: SF-268 CNS
[17] = system: HL-60(TB) leukemia
[18] = system: HCT-15 colon
[19] = system: A498 renal

## N=c1oc2ccc([N+](=O)[O-])cc2cc1C(=O)NCc1ccccc1
[1]
  TGI: 32 µM
[2]
  TGI: > 100 µM
[3]
  TGI: 60.9 µM
[4]
  TGI: 41.6 µM
[5]
  TGI: 36.7 µM
[6]
  TGI: 33.6 µM
[7]
  TGI: 39.5 µM
[8]
  TGI: > 100 µM
[9]
  TGI: 99.4 µM
[10]
  TGI: > 100 µM
[11]
  TGI: 30.9 µM
[12]
  TGI: > 100 µM
[13]
  TGI: 39.1 µM
[14]
  TGI: 40 µM
[15]
  TGI: 25.8 µM
[16]
  TGI: 40.6 µM
[17]
  TGI: > 100 µM
[18]
  TGI: 33.5 µM

## CC12CCC3[C@@H](CC3(C)C)C(O)(CCC1=O)C2 (stereo partly drawn)
[1]
  TGI: > 100 µM
[2]
  TGI: > 100 µM
[3]
  TGI: > 100 µM
[4]
  TGI: > 100 µM
[5]
  TGI: > 100 µM
[6]
  TGI: > 100 µM
[7]
  TGI: > 100 µM
[8]
  TGI: > 100 µM
[9]
  TGI: > 100 µM
[10]
  TGI: > 100 µM
[11]
  TGI: > 100 µM
[13]
  TGI: > 100 µM
[14]
  TGI: > 100 µM
[16]
  TGI: > 100 µM
[17]
  TGI: > 100 µM
[18]
  TGI: > 100 µM

## CC(C)(C)[Si](C)(C)O[C@@H](C(=O)OC1C=CCCC1)[C@@H](NC(=O)c1ccccc1)c1ccccc1 (stereo partly drawn)
[1]
  TGI: > 100 µM
[2]
  TGI: > 100 µM
[3]
  TGI: > 100 µM
[4]
  TGI: 37.2 µM
[19]
  TGI: > 100 µM
[5]
  TGI: > 100 µM
[6]
  TGI: > 100 µM
[7]
  TGI: > 100 µM
[8]
  TGI: 37.9 µM
[9]
  TGI: > 100 µM
[10]
  TGI: > 100 µM
[11]
  TGI: > 100 µM
[12]
  TGI: > 100 µM
[13]
  TGI: 48.6 µM
[14]
  TGI: > 100 µM
[15]
  TGI: 63.6 µM
[16]
  TGI: > 100 µM
[18]
  TGI: > 100 µM

## CCCCCCCCCCCCCCCCCCNc1ccn(C2OC(COP(=O)(O)OC3CC(n4cc(F)c(=O)[nH]c4=O)OC3COP(=O)(O)OCC3OC(n4ccc(N)nc4=O)C(O)C3O)C(O)C2O)c(=O)n1 (stereo not drawn)
[1]
  TGI: > 60.7 µM
[2]
  TGI: > 76.8 µM
[3]
  TGI: > 61.7 µM
[4]
  TGI: > 48.8 µM
[19]
  TGI: > 100 µM
[5]
  TGI: 41.5 µM
[6]
  TGI: 53.5 µM
[7]
  TGI: > 57.3 µM
[8]
  TGI: 25.6 µM
[9]
  TGI: > 100 µM
[10]
  TGI: > 58.8 µM
[11]
  TGI: 54.9 µM
[12]
  TGI: > 57.9 µM
[13]
  TGI: 37.3 µM
[14]
  TGI: > 58.1 µM
[15]
  TGI: > 69.7 µM
[17]
  TGI: 11.4 µM
[18]
  TGI: 41.4 µM

## N#C/C(=C\c1cn(Cc2ccccc2)c2ccccc12)c1nn(-c2ccccc2)c(N)c1C#N
[1]
  TGI: > 100 µM
[3]
  TGI: 14.2 µM
[4]
  TGI: 23.6 µM
[19]
  TGI: 59.3 µM
[5]
  TGI: > 100 µM
[6]
  TGI: 49 µM
[7]
  TGI: 36.3 µM
[8]
  TGI: > 100 µM
[9]
  TGI: 35.8 µM
[10]
  TGI: 40 µM
[11]
  TGI: 30.7 µM
[12]
  TGI: 28.8 µM
[13]
  TGI: 16.9 µM
[14]
  TGI: 21.3 µM
[15]
  TGI: 34.7 µM
[16]
  TGI: 91.7 µM
[17]
  TGI: > 100 µM
[18]
  TGI: > 100 µM

## COc1ccc2c(c1)/C(=C\c1c(C)nc3n1CCS3)C(=O)N2
[1]
  TGI: > 100 µM
[2]
  TGI: > 100 µM
[3]
  TGI: > 100 µM
[4]
  TGI: > 100 µM
[19]
  TGI: 99.6 µM
[5]
  TGI: > 100 µM
[6]
  TGI: > 100 µM
[7]
  TGI: > 100 µM
[8]
  TGI: > 100 µM
[9]
  TGI: > 100 µM
[10]
  TGI: 63.3 µM
[11]
  TGI: > 100 µM
[12]
  TGI: > 100 µM
[13]
  TGI: > 100 µM
[14]
  TGI: > 100 µM
[17]
  TGI: 66.8 µM
[18]
  TGI: > 100 µM

## O=C1CC(CC(O)[C@@H]2CCCC[C@@H]2O)CC(=O)N1c1ccccc1 (stereo partly drawn)
[1]
  TGI: > 100 µM
[2]
  TGI: > 100 µM
[3]
  TGI: > 100 µM
[4]
  TGI: > 100 µM
[19]
  TGI: > 100 µM
[5]
  TGI: > 100 µM
[6]
  TGI: > 100 µM
[7]
  TGI: > 100 µM
[8]
  TGI: > 100 µM
[9]
  TGI: > 100 µM
[11]
  TGI: > 100 µM
[12]
  TGI: > 100 µM
[14]
  TGI: > 100 µM
[15]
  TGI: > 100 µM
[16]
  TGI: > 100 µM
[17]
  TGI: > 100 µM
[18]
  TGI: > 100 µM

## COC(=O)c1c(O)ccc2c1c1c(n2Cc2ccccc2)C(=O)c2ccccc2C1=O
[1]
  TGI: 27.8 µM
[2]
  TGI: 38.8 µM
[3]
  TGI: 32.2 µM
[4]
  TGI: 31.9 µM
[5]
  TGI: 29.7 µM
[6]
  TGI: 28.8 µM
[7]
  TGI: 46 µM
[8]
  TGI: 50.1 µM
[9]
  TGI: 31.8 µM
[10]
  TGI: 30.1 µM
[11]
  TGI: 25.8 µM
[12]
  TGI: 28.7 µM
[13]
  TGI: 27.7 µM
[14]
  TGI: 32.1 µM
[15]
  TGI: 23.8 µM
[16]
  TGI: 33 µM
[17]
  TGI: 47.2 µM
[18]
  TGI: 30.3 µM

## Cc1ccc2nc(CN3CCCC(O)C3)cc(=O)n2c1 (stereo not drawn)
[1]
  TGI: > 100 µM
[2]
  TGI: > 100 µM
[3]
  TGI: > 100 µM
[5]
  TGI: > 100 µM
[6]
  TGI: > 100 µM
[7]
  TGI: > 100 µM
[8]
  TGI: > 100 µM
[9]
  TGI: > 100 µM
[10]
  TGI: > 100 µM
[11]
  TGI: > 100 µM
[12]
  TGI: > 100 µM
[13]
  TGI: > 100 µM
[14]
  TGI: > 100 µM
[15]
  TGI: > 100 µM
[16]
  TGI: > 100 µM
[17]
  TGI: > 100 µM
[18]
  TGI: > 100 µM

## Cc1cc(C)nc(NS(=O)(=O)c2ccc(NNc3c4ccccc4nc4c(C(=O)Nc5ccc(S(=O)(=O)Nc6ncccn6)cc5)cccc34)cc2)n1
[1]
  TGI: 39.2 µM
[2]
  TGI: > 100 µM
[3]
  TGI: 65.3 µM
[4]
  TGI: 47.5 µM
[5]
  TGI: > 100 µM
[6]
  TGI: > 100 µM
[7]
  TGI: 55.2 µM
[8]
  TGI: 59 µM
[9]
  TGI: > 100 µM
[10]
  TGI: 89.9 µM
[11]
  TGI: > 100 µM
[12]
  TGI: > 100 µM
[13]
  TGI: 43.6 µM
[14]
  TGI: > 100 µM
[15]
  TGI: 48.9 µM
[16]
  TGI: > 100 µM
[17]
  TGI: 62.9 µM
[18]
  TGI: > 100 µM

## COc1nc(C)nc2sc3c(c12)CCCC3
[1]
  TGI: > 100 µM
[2]
  TGI: > 100 µM
[3]
  TGI: > 100 µM
[4]
  TGI: > 100 µM
[19]
  TGI: > 100 µM
[5]
  TGI: > 100 µM
[6]
  TGI: > 100 µM
[7]
  TGI: > 100 µM
[8]
  TGI: > 100 µM
[9]
  TGI: > 100 µM
[11]
  TGI: > 100 µM
[12]
  TGI: > 100 µM
[13]
  TGI: > 100 µM
[14]
  TGI: > 100 µM
[15]
  TGI: > 100 µM
[16]
  TGI: > 100 µM
[17]
  TGI: > 100 µM
[18]
  TGI: > 100 µM

## COc1cc(C2SCC(=O)N2c2ccccc2Cl)cc(OC)c1OC (stereo not drawn)
[1]
  TGI: > 100 µM
[3]
  TGI: > 100 µM
[4]
  TGI: > 100 µM
[19]
  TGI: > 100 µM
[5]
  TGI: > 100 µM
[6]
  TGI: > 100 µM
[7]
  TGI: > 100 µM
[8]
  TGI: > 100 µM
[9]
  TGI: > 100 µM
[10]
  TGI: > 100 µM
[11]
  TGI: > 100 µM
[12]
  TGI: > 100 µM
[13]
  TGI: > 100 µM
[14]
  TGI: > 100 µM
[15]
  TGI: > 100 µM
[16]
  TGI: > 100 µM
[17]
  TGI: > 100 µM
[18]
  TGI: > 100 µM

## O=[n+]1c2ccccc2n([O-])c2ccccc21
[1]
  TGI: > 100 µM
[2]
  TGI: > 100 µM
[3]
  TGI: > 100 µM
[4]
  TGI: > 100 µM
[19]
  TGI: > 100 µM
[6]
  TGI: > 100 µM
[7]
  TGI: > 100 µM
[8]
  TGI: > 100 µM
[9]
  TGI: > 100 µM
[11]
  TGI: > 100 µM
[12]
  TGI: > 100 µM
[13]
  TGI: > 100 µM
[14]
  TGI: > 100 µM
[15]
  TGI: > 100 µM
[16]
  TGI: > 100 µM
[17]
  TGI: 72.4 µM
[18]
  TGI: > 100 µM
